Entries after “also recorded” stand apart in the source; their conditions may differ.
Experiments:
Format in all cases: cell-based, human
[1] = system: HCT116 colon cancer cells; experiment: Cell proliferation of HCT116 cells, drug combinations
Text: The % activity indicates % live cell activity.

[2] = system: Luc-Linker control; experiment: Luc-Linker control luciferase reporter in HeLa cells; conditions: 10 μM, relative to DMSO, listed as diazobenzene 2
Text: (§1) MicroRNA miR-21 was selected as a target miRNA due to its involvement as an anti-apoptotic factor in cancer cells and its elevated levels in various cancers such as breast, ovarian, and lung cancer as well as glioblastoma (Chan, et al. (2005) Cancer Res. 65:6029). Lentiviral reporter constructs for miRNA activity were assembled by introducing the complementary sequences of mature miR-21 (5′-UAGCUUAUCAGACUGAUGUUGA-3′; SEQ ID NO:13), miR-30A (5′-CUUUCAGUCGGAUGUUUGCAGC-3′; SEQ ID NO:14) as a specificity control, and a linker sequence (a previously present multiple-cloning site with no detectable recognition by natural miRNAs) downstream of a luciferase reporter gene as a negative control (FIG. 1).
(§2) Luc-miR-21, Luc-miR-30A, and Luc-linker (control) were, by viral infection, introduced into HeLa cells, which express high levels of miR-21, but only low levels of miR-30A (Cheng, et al. (2005) Nucl. Acids Res. 33:1290).
(§3) It was subsequently determined whether Compound 2 was a specific inhibitor of miR-21 or whether it could interfere with the general miRNA biogenesis pathway. Thus, HeLa cells stably expressing both the miR-30 luciferase reporter construct and miR-30 were treated with Compound 2.

[3] = system: miR-30; experiment: miR-30 luciferase reporter in HeLa cells expressing miR-30; conditions: HeLa cells expressing miR-30 reporter and miR-30, 10 μM
Text: as §1
The specificity of the reporter system was tested by assaying cells which contained both the Luc-miR-30A reporter and a construct expressing exogenous miR-30.
as §3

[4] = system: mature miR-21; experiment: Quantitative RT-PCR of mature miR-21; conditions: for mature miR-21 expression upon treatment: HCT116 colon cancer cells and A172 glioblastoma cells
Text: (§4) UNG (Applied Biosystems). […] (Sigma). […] ID NO:18); E-cadherin: forward [NT] ID NO:19), reverse [NT] ID NO:20); Fibronectin: forward [NT] ID NO:21), reverse [NT] ID NO:22); RAP1A: forward [NT] ID NO:23), reverse [NT]

[5] = system: mature miR-30; experiment: Quantitative RT-PCR of mature miR-30; conditions: MDA-MB-231, MCF-7 and A172 cell lines
Text: as §4

[6] = system: miR-21; experiment: Luc-miR-21 luciferase reporter assay in HeLa cells; conditions: for Luciferase Assay: HeLa cells with Luc-miR-21 reporter, screen at 10 μM, 48 hours
Text: as §1, §2
To illustrate the method of the present invention, a primary screen of >1000 compounds was conducted. The library was composed of a collection of novel compounds and the Library of Pharmacologically Active Compounds (LOPAC library, Sigma-Aldrich, St Louis, Mo.). All compounds were stored at a 10 mM concentration in DMSO to keep the DMSO concentration in the actual screen at 0.1% thereby minimizing toxicity. HeLa cells stably expressing the miR-reporter were treated with DMSO ranging from 0.1-1%. Luciferase signals were determined 48 hours after the treatment.
HeLa cells (2500 cells) were plated in each well of 384-well plate 24 hour before the addition of compounds. Compounds at 10 μM final concentration were added to each well. Luciferase signal were determined 48 hours after compound treatment. Using this screening assay, compound 1 was identified as a miR-21 antagonist.

[7] = system: mature miR-93; experiment: Quantitative RT-PCR of mature miR-93; conditions: MDA-MB-231, MCF-7 and A172 cell lines
Text: as §4

[8] = system: primary miR-21 (pri-miR-21); experiment: Quantitative RT-PCR of primary miR-21; conditions: for primary miR-21 expression upon treatment: HCT116 colon cancer cells and A172 glioblastoma cells
Text: UNG (Applied Biosystems). […] (Sigma).

[9] = MDA-MB-231, MCF-7 and A172 cell lines

Compound: C#CCNC(=O)c1ccc(/N=N/c2ccccc2)cc1 [Compound 2, (E)-4-(Phenyldiazenyl)-N-(prop-2-ynyl)benzamide]
- proliferation of HCT116 cells, combination with 5-FU ([1]; combination with 5-FU): synergistic effect; also recorded: synergistically decrease the proliferation
- proliferation of HCT116 cells, combination with Curcumin ([1]; combination with Curcumin): synergistic effect; also recorded: synergistically decrease the proliferation
- effect on luciferase signal, Luc-Linker control [2]: does not affect; also recorded: did not affect the luciferase signal
- effect on luciferase signal, miR-30 reporter [3]: no increase of the luciferase signal was detected
- effect on luciferase signal, miR-30 reporter ([3]; listed as diazobenzene 2): does not affect
- effect on mature miR-21 [4, 9]: suppressed
- effect on mature miR-30 [5]: no effect
- fold increase of the luciferase signal ([6]; 10 μM, HeLa cells): 5 fold
- Luciferase Assay [6]: 4.83
- effect on mature miR-93 [7]: no effect
- effect on primary miR-21 [8, 9]: suppressed

Compound: C#CCNC(=O)c1ccc(NNc2ccccc2)cc1 [Compound 3]
- Luciferase Assay [6]: 3.67

Compound: Cn1c2c(c3ccccc3c1=O)C(=O)c1cc3c(cc1-2)OCO3 [Compound 4]
- Luciferase Assay [6]: 3.12

Compound: O=c1[nH]cc(F)c(=O)[nH]1 [Compound 5-FU, 5-fluorouracil]
- mature miR-21 expression upon treatment [4]: increased
- primary miR-21 expression upon treatment [8]: increased

Compound: O=C1c2cc3c(cc2-c2[nH]c(=O)c4ccccc4c21)OCO3 [Compound 5]
- Luciferase Assay [6]: 2.92

Compound: COc1ccc2c(c1[N+](=O)[O-])CCC1C2CC[C@]2(C)C(=O)CCC12 (stereo partly shown) [Compound 6]
- Luciferase Assay [6]: 3.34

Compound: COc1ccc2c(c1N)CCC1C2CC[C@]2(C)C(=O)CCC12 (stereo partly shown) [Compound 7]
- Luciferase Assay [6]: 3.04-3.87

Compound: COc1cc2c(cc1N)C1CC[C@]3(C)C(=O)CCC3C1CC2 (stereo partly shown) [Compound 8]
- Luciferase Assay [6]: 3.50

Compound: COc1cc(/C=C/C(=O)CC(=O)/C=C/c2ccc(O)c(OC)c2)ccc1O [Curcumin, curcumin]
- mature miR-21 expression upon treatment [4]: increased
- primary miR-21 expression upon treatment [8]: increased

Compound: C[C@]12CC[C@@H]3c4ccc(O)cc4CC[C@H]3[C@@H]1CCC2=O [Estrone, estrone, reference compound]
- Luciferase Assay [6]: 2.76

Reference: patent publication US8338392B2, “MicroRNA modulators and method for identifying and using the same” (The Wistar Institute, priority 2008, dated 2012)
